Tested on: MDA-MB-231 xenografts
Assay: Therapeutic efficacy in MDA-MB-231 xenografts
Assay type: in vivo, mouse
Conditions: tail vein injection on days 0 and 3 (29.6 MBq each for radioactive groups), end of treatment (26 days), mean ± SD, n = 5
Protocol: Five-week-old female athymic BALB/c nude mice (Shanghai Slaccas Experiment Animal Corp., Shanghai, China) were used in our study. Mouse xenograft models of MDA-MB-231, 4T1, and SK-BR-3 cells were produced by the subcutaneous injection of 5 × 10^6 cells (suspended in 150 μL PBS) into the right axilla of each mouse. The mice were used in subsequent experiments when tumor diameter reached 0.5-0.9 cm. The study protocol was approved by the institutional review board and by the Experimental Animal Center of Ruijin Hospital affiliated to the School of Medicine of Shanghai Jiao Tong University.
Twenty mice-bearing MDA-MB-231 human BC xenografts were divided into four groups of five animals. Group 1 was injected with ^131I-Var3-pHLIP in the tail vein on days 0 and 3 (29.6 MBq each day). Groups 2, 3, and 4 were injected with the same volume of Var3-pHLIP, ^131I (29.6 MBq), and saline solution, respectively. Tumor size was measured every 2 to 4 days postinjection (pi) for 26 days using a caliper. Tumor volumes (V, […]) were calculated using the formula: V = (a × b^2)/2, where a and b are tumor length and width, respectively. Relative tumor volumes were calculated as V/V0 (V0, tumor volume before treatment). The body weight of mice was also determined.

## ACDDQNPWRAYLDLLFPTDTLLLDLLWK [Var3-pHLIP]
  relative tumor volume (V/V0): 4.17 ± 0.51
